Values joined by “and” are separate entries in the source; they are usually repeats but may differ in a detail not shown here. Equal values may be shown once.
Experiment: xn = mol fraction of the nth substance listed

Cc1cccc(C)c1 + CC(C)CO
308.15 K, 101 kPa
Settings	viscosity [mPa·s]
x2 = 0.066	0.543
x2 = 0.1299	0.555
x2 = 0.2218	0.581
x2 = 0.3376	0.635
x2 = 0.4463	0.714
x2 = 0.5733	0.862
x2 = 0.6333	0.954
x2 = 0.7251	1.146
x2 = 0.8223	1.479
x2 = 0.9039	1.794
x2 = 0.9623	2.218

CC1(C)SC2C(NC(=O)C(N)c3ccccc3)C(=O)N2C1C(=O)O (stereo unspecified) + O
viscosity, 101 kPa
Settings	x1 = 9e-06	x1 = 1e-05	x1 = 2e-05	x1 = 3.2e-05	x1 = 3.6e-05	x1 = 4e-05	x1 = 5e-05	x1 = 6.8e-05	x1 = 7e-05	x1 = 7.2e-05
305.15 K	0.7656 mPa·s	0.7569 mPa·s	0.7618 mPa·s and 0.763 mPa·s	0.7637 mPa·s	0.7729 mPa·s	0.7702 mPa·s	0.7649 mPa·s	0.7656 mPa·s	0.773 mPa·s	0.7701 mPa·s
310.15 K	0.7019 mPa·s	0.6941 mPa·s	0.6924 mPa·s and 0.6965 mPa·s	0.6948 mPa·s	0.6993 mPa·s	0.6989 mPa·s	0.6964 mPa·s	0.6976 mPa·s	0.7041 mPa·s	0.7032 mPa·s
315.15 K	0.6419 mPa·s	0.6361 mPa·s	0.6342 mPa·s and 0.6376 mPa·s	0.6356 mPa·s	0.6442 mPa·s	0.6407 mPa·s	0.6381 mPa·s	0.6398 mPa·s	0.6421 mPa·s	0.6399 mPa·s

Nc1ccccc1Cl + ClC(Cl)(Cl)Cl
viscosity [mPa·s], 100 kPa
Settings	x2 = 0.1011	x2 = 0.1916	x2 = 0.2901	x2 = 0.3811	x2 = 0.4923	x2 = 0.5989	x2 = 0.6911	x2 = 0.7741	x2 = 0.8897
298.15 K	3.882	3.589	3.268	2.97	2.604	2.25	1.942	1.664	1.273
303.15 K	3.532	3.269	2.981	2.713	2.382	2.063	1.785	1.533	1.179
308.15 K	3.158	2.927	2.675	2.439	2.149	1.868	1.622	1.4	1.086
313.15 K	2.837	2.634	2.411	2.203	1.947	1.699	1.482	1.284	1.005
318.15 K	2.566	2.387	2.189	2.004	1.776	1.554	1.361	1.185	0.934

Nc1ccccc1Cl + CCCCO
viscosity [mPa·s], 101 kPa
Settings	x1 = 0.0883	x1 = 0.1789	x1 = 0.2719	x1 = 0.3675	x1 = 0.4656	x1 = 0.5666	x1 = 0.6703	x1 = 0.7771	x1 = 0.8869
303.15 K	2.47	2.66	2.83	3	3.16	3.31	3.44	3.57	3.69
308.15 K	2.21	2.39	2.55	2.71	2.85	2.98	3.1	3.22	3.32
313.15 K	1.98	2.16	2.31	2.45	2.58	2.7	2.82	2.92	3
318.15 K	1.79	1.96	2.1	2.23	2.35	2.46	2.57	2.67	2.74

NCCCO + C1COCCO1
viscosity [mPa·s], 101 kPa
Settings	x1 = 0.1197	x1 = 0.2269	x1 = 0.3332	x1 = 0.4339	x1 = 0.5403	x1 = 0.6385	x1 = 0.7328	x1 = 0.8244	x1 = 0.9072
298.15 K	1.419	1.847	2.619	3.465	4.883	6.97	10.21	15	20.98
303.15 K	1.294	1.654	2.311	3.05	4.251	5.966	8.411	12.14	16.7
308.15 K	1.188	1.488	2.037	2.674	3.624	4.916	6.868	9.516	13.47

O=S1(=O)CCCC1 + CCCCCO
viscosity [mPa·s], 101 kPa
Settings	x1 = 0.1119	x1 = 0.2324	x1 = 0.3323	x1 = 0.4328	x1 = 0.5236	x1 = 0.6267	x1 = 0.7208	x1 = 0.8145	x1 = 0.9043
303.15 K	2.686	2.749	2.951	3.218	3.489	3.956	4.594	5.618	7.273
308.15 K	2.366	2.416	2.578	2.807	3.082	3.491	4.077	4.986	6.441
313.15 K	2.096	2.14	2.278	2.479	2.729	3.111	3.644	4.454	5.735

O=S1(=O)CCCC1 + COCCO
303.15 K, 101 kPa
Settings	viscosity [mPa·s]
x1 = 0.0483	1.2
x1 = 0.0994	1.054
x1 = 0.1962	1.489
x1 = 0.2953	2.053
x1 = 0.3486	2.251
x1 = 0.4007	2.703
x1 = 0.4569	3.258
x1 = 0.4997	3.863
x1 = 0.5991	4.997
x1 = 0.7126	6.301
x1 = 0.7971	7.413
x1 = 0.8496	8.345
x1 = 0.8986	9.013

Cc1ccc(O)cc1 + CCCCNCCCC
298.16 K, 101 kPa
Settings	viscosity [mPa·s]
x1 = 0.4487	3.678
x1 = 0.4877	5.428
x1 = 0.5489	7.609
x1 = 0.5951	11.91
x1 = 0.6192	13.62
x1 = 0.6457	16.41
x1 = 0.6924	28.49
x1 = 0.7098	33.96
x1 = 0.7329	43.07
x1 = 0.7632	61.06
x1 = 0.7959	79.23
x1 = 0.833	89.65
x1 = 0.8754	78.76
x1 = 0.902	60.59
x1 = 0.9421	33.43
x2 = 0.001967	12.1
x2 = 0.003431	17.88
x2 = 0.015	18.21

CCCCn1cc[n+](C)c1.F[B-](F)(F)F + CN(C)C=O
101.33 kPa
Settings	viscosity [mPa·s]
293.15 K, x1 = 0.24	8.99
293.15 K, x1 = 0.83	76.67
298.15 K, x1 = 0.335	6.371
298.15 K, x1 = 0.34	8.92
298.15 K, x1 = 0.3986	7.783
298.15 K, x1 = 0.8976	78.41
298.15 K, x1 = 0.94	88.43
303.15 K, x1 = 0.43	8.05
303.15 K, x1 = 0.94	74.19
308.15 K, x1 = 0.55	9.58

ClC(Cl)(Cl)c1ccccc1 + CC(Cl)(Cl)Cl
298.15 K, 101.33 kPa
Settings	viscosity [mPa·s]
x2 = 0.157	1.93
x2 = 0.295	1.72
x2 = 0.423	1.532
x2 = 0.54	1.367
x2 = 0.647	1.222
x2 = 0.746	1.096
x2 = 0.837	0.9829
x2 = 0.921	0.8849

O=S1(=O)CCCC1 + c1ccccc1
viscosity [mPa·s]
Settings	303.15 K	313.15 K	323.15 K
101 kPa, x1 = 0.0944	0.7133	0.6194	0.5441
101 kPa, x1 = 0.1855	0.8992	0.7737	0.6751
101 kPa, x1 = 0.2522	1.074	0.9112	0.7919
101 kPa, x1 = 0.2849	1.162	0.9889	0.8556
101 kPa, x1 = 0.3829	1.504	1.267	1.085
101 kPa, x1 = 0.4835	1.976	1.648	1.396
101 kPa, x1 = 0.5905	2.694	2.202	1.855
101 kPa, x1 = 0.6841	3.563	2.879	2.388
101 kPa, x1 = 0.7917	5.014	3.996	3.267
101 kPa, x1 = 0.8956	7.129	5.619	4.505
101.3 kPa, x2 = 0.1417	6.075	–	3.928
101.3 kPa, x2 = 0.2777	4.003	–	2.676
101.3 kPa, x2 = 0.3972	2.826	–	1.95
101.3 kPa, x2 = 0.5062	2.066	–	1.468
101.3 kPa, x2 = 0.6063	1.571	–	1.137
101.3 kPa, x2 = 0.6976	1.2	–	0.8791
101.3 kPa, x2 = 0.7823	0.9625	–	0.717
101.3 kPa, x2 = 0.8602	0.786	–	0.5933
101.3 kPa, x2 = 0.9327	0.652	–	0.5029

Nc1ccccc1Cl + COCCO
303.15 K, 101 kPa
Settings	viscosity [mPa·s]
x1 = 0.093	2.184
x1 = 0.157	2.388
x1 = 0.2242	2.597
x1 = 0.3168	2.811
x1 = 0.415	3.024
x1 = 0.5093	3.223
x1 = 0.6253	3.414
x1 = 0.7713	3.581
x1 = 0.8914	3.711

Cc1ccc(O)cc1 + CCC(=O)O
viscosity [mPa·s], 101 kPa
Settings	x2 = 0.1344	x2 = 0.2589	x2 = 0.3745	x2 = 0.4823	x2 = 0.5828	x2 = 0.677	x2 = 0.7653	x2 = 0.8482	x2 = 0.9263
298.15 K	10.16	7.533	5.663	4.309	3.321	2.59	2.042	1.625	1.297
308.15 K	6.121	4.928	3.983	3.238	2.597	2.136	1.709	1.372	1.112
318.15 K	4.876	4.035	3.365	2.772	2.281	1.853	1.512	1.241	0.9766

Cc1cccc(C)c1 + COCCO
viscosity [mPa·s], 101 kPa
Settings	298.15 K	308.15 K
x2 = 0.0519	0.598	0.513
x2 = 0.1498	0.635	0.543
x2 = 0.2504	0.681	0.58
x2 = 0.3476	0.737	0.624
x2 = 0.452	0.81	0.68
x2 = 0.4991	0.848	0.709
x2 = 0.5538	0.897	0.746
x2 = 0.6476	0.996	0.819
x2 = 0.7504	1.127	0.915
x2 = 0.8491	1.282	1.026
x2 = 0.9558	1.491	1.172

From the CheMixHub viscosity set
